# Source: patent publication US20120149691A1, “Pyrrolo [1,2-b] Pyridazine Derivatives as Janus Kinase Inhibitors” (BioCryst Pharmaceuticals, Inc., priority 2009, published 2012)
row,melting point [°C],SMILES
1,192.2,"NC(=O)c1cnn2cccc2c1NC1CCC(O)CC1 (stereo not shown) [Compound 51i, 4-(4-hydroxycyclohexylamino)pyrrolo[1,2-b]pyridazine-3-carboxamide]"
2,101.8,"N#Cc1cnn2cccc2c1NCC1CCCO1 (stereo not shown) [Compound 51k, 4-((tetrahydrofuran-2-yl)methylamino)pyrrolo[1,2-b]pyridazine-3-carbonitrile]"
3,120,"NC(=O)c1cnn2cccc2c1NCC1CCCO1 (stereo not shown) [Compound 51m, 4-((tetrahydrofuran-2-yl)methylamino)pyrrolo[1,2-b]pyridazine-3-carboxamide]"
4,195.1,"CC1CCCCC1Nc1c(C(=O)O)cnn2cccc12 (stereo not shown) [Compound 18e, 4-(2-methylcyclohexylamino)pyrrolo[1,2-b]pyridazine-3-carboxylic acid]"
5,106.9,"CN(C)C(CNc1c(C#N)cnn2cccc12)c1ccco1 (stereo not shown) [Compound 49h, 4-(2-(dimethylamino)-2-(furan-2-yl)ethylamino)pyrrolo[1,2-b]pyridazine-3-carbonitrile]"
6,158.6,"C[C@H]1CCCC[C@H]1Nc1c(C(N)=O)cnn2cccc12 [Compound 18g, 4-((1R,2S)-2-methylcyclohexylamino)pyrrolo[1,2-b]pyridazine-3-carboxamide]"
7,178.8,"CC(C)(CNc1c(C#N)cnn2cccc12)N1CCOCC1 [Compound 49e, 4-(2-methyl-2-morpholinopropylamino)pyrrolo[1,2-b]pyridazine-3-carbonitrile]"
8,108,"N#Cc1cnn2cccc2c1NC1CCCCCC1 [Compound 52h, 4-(cycloheptylamino)pyrrolo[1,2-b]pyridazine-3-carbonitrile]"
9,163.5,"N#Cc1cnn2cccc2c1Nc1ccccc1 [Compound 52e, 4-(phenylamino)pyrrolo[1,2-b]pyridazine-3-carbonitrile]"
10,279.2,"NC(=O)c1cnn2cccc2c1NC1CCCCCC1 [Compound 52i, 4-(cycloheptylamino)pyrrolo[1,2-b]pyridazine-3-carboxamide]"
11,207.7,"N#Cc1cnn2cccc2c1NC1(c2ccc(Cl)cc2Cl)CC1 [Compound 49k, 4-(1-(2,4-dichlorophenyl)cyclopropylamino)pyrrolo[1,2-b]pyridazine-3-carbonitrile]"
12,102.9,"N#Cc1cnn2cccc2c1NC1CCCC1 [Compound 52b, 4-(cyclopentylamino)pyrrolo[1,2-b]pyridazine-3-carbonitrile]"
13,247.2,"NC(=O)c1cnn2cccc2c1Nc1ccccc1 [Compound 52f, 4-(phenylamino)pyrrolo[1,2-b]pyridazine-3-carboxamide]"
14,156.9,"COc1ccccc1C(CNc1c(C#N)cnn2cccc12)N1CCOCC1 (stereo not shown) [Compound 50b, 4-(2-(2-methoxyphenyl)-2-morpholinoethylamino)pyrrolo[1,2-b]pyridazine-3-carbonitrile]"
15,137.9,"Cc1nc(C(CC(C)C)Nc2c(C#N)cnn3cccc23)sc1C (stereo not shown) [Compound 49b, 4-(1-(4,5-Dimethylthiazol-2-yl)-3-methylbutylamino)pyrrolo[1,2-b]pyridazine-3-carbonitrile]"
16,154.7,"C[C@@H]1CCCC[C@@H]1Nc1c(C(N)=O)cnn2cccc12 [Compound 18i, 4-((1S,2R)-2-methylcyclohexylamino)pyrrolo[1,2-b]pyridazine-3-carboxamide]"
